Assay results from PubChem BioAssay AID248 (DTP/NCI, 2004).
“And” between values parts separate entries of the source, which are not always exact repeats. Equal entries are not always repeated. Toxic doses and inconclusive results are not listed. No stated cut-off is given here; in the data, active means T/C of 150% or more; inactive means T/C below 125%.

System: L1210 leukemia ip in BDF1 mice, survival T/C
Assay: NCI In Vivo Anticancer Drug Screen. Data for tumor model L1210 Leukemia (intraperitoneal) in B6D2F1 (BDF1) mice
Conditions: endpoint: mean survival time, higher = longer survival
In short: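 Antitumor effect is assessed in tumor-bearing animals. Survival in the compound arm is compared with a vehicle-dosed control arm and expressed as their quotient.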

[1] = dose: 100.0 mg/kg/injection, schedule: Q01DX001 (ip), vehicle: saline
[2] = dose: 200.0 mg/kg/injection, schedule: Q01DX001 (ip), vehicle: saline
[3] = dose: 50.0 mg/kg/injection, schedule: Q01DX009 (ip), vehicle: saline
[4] = dose: 100.0 mg/kg/injection, schedule: Q01DX009 (ip), vehicle: saline
[5] = dose: 25.0 mg/kg/injection, schedule: Q01DX009 (ip), vehicle: saline
[6] = dose: 5.0 mg/kg/injection, schedule: Q01DX001 (ip), vehicle: saline
[7] = dose: 10.0 mg/kg/injection, schedule: Q01DX001 (ip), vehicle: saline
[8] = dose: 20.0 mg/kg/injection, schedule: Q01DX001 (ip), vehicle: saline
[9] = dose: 50.0 mg/kg/injection, schedule: Q01DX001 (ip), vehicle: carboxymethylcellulose (CMC)
[10] = dose: 100.0 mg/kg/injection, schedule: Q01DX001 (ip), vehicle: carboxymethylcellulose (CMC)
[11] = dose: 200.0 mg/kg/injection, schedule: Q01DX001 (ip), vehicle: carboxymethylcellulose (CMC)
[12] = dose: 400.0 mg/kg/injection, schedule: Q01DX001 (ip), vehicle: carboxymethylcellulose (CMC)

Measured: T/C

NC1(C(=O)O)Cc2ccccc2C1
inactive: dose: 50.0 mg/kg/injection, schedule: Q01DX001 (ip), vehicle: olive oil, sesame oil, peanut oil 101 % of control | dose: 100.0 mg/kg/injection, schedule: Q01DX001 (ip), vehicle: olive oil, sesame oil, peanut oil 101 % of control | dose: 200.0 mg/kg/injection, schedule: Q01DX001 (ip), vehicle: olive oil, sesame oil, peanut oil 112 % of control | dose: 400.0 mg/kg/injection, schedule: Q01DX001 (ip), vehicle: olive oil, sesame oil, peanut oil 104 % of control

O=[N+]([O-])c1ccc(C(Br)C(Br)c2ccccc2Cl)cc1 (stereo not given)
inactive: dose: 100.0 mg/kg/injection, schedule: Q01DX009 (ip), vehicle: Klucel (hydroxypropylcellulose) (HPC) 96 % of control | dose: 100.0 mg/kg/injection, schedule: Q04DX003 (ip), vehicle: Klucel (hydroxypropylcellulose) (HPC) 110 % of control | dose: 200.0 mg/kg/injection, schedule: Q01DX009 (ip), vehicle: Klucel (hydroxypropylcellulose) (HPC) 98 % of control | dose: 200.0 mg/kg/injection, schedule: Q04DX003 (ip), vehicle: Klucel (hydroxypropylcellulose) (HPC) 100 % of control | dose: 400.0 mg/kg/injection, schedule: Q01DX009 (ip), vehicle: Klucel (hydroxypropylcellulose) (HPC) 93 % of control | dose: 400.0 mg/kg/injection, schedule: Q04DX003 (ip), vehicle: Klucel (hydroxypropylcellulose) (HPC) 94 % of control

COC(=O)CC(C)=S.[Ni]
inactive: dose: 50.0 mg/kg/injection, schedule: Q01DX001 (ip), vehicle: saline 98 % of control | [1] 98 % of control | [2] 98 % of control | dose: 400.0 mg/kg/injection, schedule: Q01DX001 (ip), vehicle: saline 117 % of control

NNC(=O)Cc1ccc([N+](=O)[O-])cc1
inactive: [3] 94 % of control | [1] 97 % of control | [4] 103 % of control | [2] 94 % of control | dose: 200.0 mg/kg/injection, schedule: Q01DX009 (ip), vehicle: saline 105 % of control

Cc1ccc(C(=O)C[S+](C)C)c(C)c1
inactive: [5] 98 % of control | [3] 95 % of control | dose: 100.0 mg/kg/injection, schedule: Q04DX003 (ip), vehicle: saline with Tween-80 102 % of control

N#Cc1cccc(C[P+](c2ccccc2)(c2ccccc2)c2ccccc2)c1
inactive: dose: 12.5 mg/kg/injection, schedule: Q01DX009 (ip), vehicle: Klucel (hydroxypropylcellulose) (HPC) 100 % of control | dose: 12.5 mg/kg/injection, schedule: Q04DX003 (ip), vehicle: Klucel (hydroxypropylcellulose) (HPC) 111 % of control | dose: 25.0 mg/kg/injection, schedule: Q01DX009 (ip), vehicle: Klucel (hydroxypropylcellulose) (HPC) 102 % of control | dose: 25.0 mg/kg/injection, schedule: Q04DX003 (ip), vehicle: Klucel (hydroxypropylcellulose) (HPC) 111 % of control | dose: 50.0 mg/kg/injection, schedule: Q04DX003 (ip), vehicle: Klucel (hydroxypropylcellulose) (HPC) 100 % of control

Cc1ccc2c(C)c3c(ccc4ccccc43)c[n+]2c1
inactive: dose: 0.36 mg/kg/injection, schedule: Q01DX015 (ip), vehicle: saline 110 % of control | dose: 0.55 mg/kg/injection, schedule: Q01DX015 (ip), vehicle: saline 104 % of control | dose: 0.83 mg/kg/injection, schedule: Q01DX015 (ip), vehicle: saline 110 % of control | dose: 1.25 mg/kg/injection, schedule: Q01DX015 (ip), vehicle: saline 105 % of control and 112 % of control | dose: 2.5 mg/kg/injection, schedule: Q01DX015 (ip), vehicle: saline 103 % of control | dose: 2.5 mg/kg/injection, schedule: Q04DX003 (ip), vehicle: saline 101 % of control | [6] 94 % of control | dose: 5.0 mg/kg/injection, schedule: Q01DX015 (ip), vehicle: saline 111 % of control | dose: 5.0 mg/kg/injection, schedule: Q04DX003 (ip), vehicle: saline 95 % of control | [7] 96 % of control | dose: 10.0 mg/kg/injection, schedule: Q01DX015 (ip), vehicle: saline 110 % of control and 117 % of control | dose: 10.0 mg/kg/injection, schedule: Q04DX003 (ip), vehicle: saline 111 % of control | [8] 102 % of control | dose: 20.0 mg/kg/injection, schedule: Q04DX003 (ip), vehicle: saline 113 % of control

CCCCCCOC(CN)C(Cl)(Cl)Cl (stereo not given)
inactive: dose: 12.5 mg/kg/injection, schedule: Q04DX003 (ip), vehicle: saline with Tween-80 107 % of control | dose: 25.0 mg/kg/injection, schedule: Q01DX009 (ip), vehicle: saline with Tween-80 116 % of control | dose: 25.0 mg/kg/injection, schedule: Q04DX003 (ip), vehicle: saline with Tween-80 109 % of control | dose: 50.0 mg/kg/injection, schedule: Q01DX009 (ip), vehicle: saline with Tween-80 97 % of control | dose: 50.0 mg/kg/injection, schedule: Q04DX003 (ip), vehicle: saline with Tween-80 102 % of control

CCCCCCCN(CCCCCCC)C(=O)N(C)C
inactive: dose: 100.0 mg/kg/injection, schedule: Q04DX002 (sc), vehicle: olive oil, sesame oil, peanut oil 104 % of control | dose: 200.0 mg/kg/injection, schedule: Q04DX002 (sc), vehicle: olive oil, sesame oil, peanut oil 107 % of control | dose: 400.0 mg/kg/injection, schedule: Q04DX002 (sc), vehicle: olive oil, sesame oil, peanut oil 114 % of control

C1CCc2c(sc3c2CCCC3)C1
inactive: [9] 98 % of control | [10] 104 % of control | [11] 98 % of control | [12] 107 % of control

O=C(Nc1cccc(Cl)c1)Nc1cccc(C(F)(F)F)c1
inactive: dose: 15.0 mg/kg/injection, schedule: Q01DX015 (ip), vehicle: carboxymethylcellulose (CMC) 103 % of control | dose: 30.0 mg/kg/injection, schedule: Q01DX015 (ip), vehicle: carboxymethylcellulose (CMC) 103 % of control | dose: 60.0 mg/kg/injection, schedule: Q01DX015 (ip), vehicle: carboxymethylcellulose (CMC) 100 % of control | dose: 120.0 mg/kg/injection, schedule: Q01DX015 (ip), vehicle: carboxymethylcellulose (CMC) 103 % of control

O=C(O)C1C(C(=O)O)C2(Cl)C(Cl)=C(Cl)C1(Cl)C2(Cl)Cl.[Co] (stereo not given)
inactive: dose: 12.5 mg/kg/injection, schedule: Q01DX009 (ip), vehicle: saline 116 % of control | dose: 25.0 mg/kg/injection, schedule: Q01DX009 (ip), vehicle: saline sonified 112 % of control | [5] 110 % of control | dose: 33.0 mg/kg/injection, schedule: Q01DX009 (ip), vehicle: saline sonified 108 % of control | dose: 50.0 mg/kg/injection, schedule: Q01DX001 (ip), vehicle: Klucel (hydroxypropylcellulose) (HPC) 98 % of control | [3] 115 % of control | dose: 75.0 mg/kg/injection, schedule: Q01DX009 (ip), vehicle: saline sonified 112 % of control | dose: 100.0 mg/kg/injection, schedule: Q01DX001 (ip), vehicle: Klucel (hydroxypropylcellulose) (HPC) 110 % of control | [4] 124 % of control | dose: 200.0 mg/kg/injection, schedule: Q01DX001 (ip), vehicle: Klucel (hydroxypropylcellulose) (HPC) 106 % of control

COc1ccc2nc3ccccc3c(NCCCN(C)C)c2c1
inactive: [6] 115 % of control | [7] 115 % of control | [8] 107 % of control | dose: 40.0 mg/kg/injection, schedule: Q01DX001 (ip), vehicle: saline 106 % of control

O=C1c2ccccc2-c2cc(F)cc(F)c21
inactive: [9] 104 % of control | [10] 102 % of control | [11] 102 % of control | [12] 102 % of control
